Reference: US10947213B1 (Merck Patent GmbH, priority 2015, dated 2021)

target: T1, TLR7/NFKb HEK cells (Homo sapiens, UniProt Q9NYK1); assay: HEK Cell Assay (TLR7/NFKb reporter, Steady-Glo luciferase readout); format: cell-based; settings: 30 min compound preincubation, then R*48 agonist for 5 hours, read-out: Potency
T1 construct: expressed in transfected cells; host or cells: HEK cells (TLR7/NFKb reporter line)
T1 sequence (Q9NYK1 27-1049): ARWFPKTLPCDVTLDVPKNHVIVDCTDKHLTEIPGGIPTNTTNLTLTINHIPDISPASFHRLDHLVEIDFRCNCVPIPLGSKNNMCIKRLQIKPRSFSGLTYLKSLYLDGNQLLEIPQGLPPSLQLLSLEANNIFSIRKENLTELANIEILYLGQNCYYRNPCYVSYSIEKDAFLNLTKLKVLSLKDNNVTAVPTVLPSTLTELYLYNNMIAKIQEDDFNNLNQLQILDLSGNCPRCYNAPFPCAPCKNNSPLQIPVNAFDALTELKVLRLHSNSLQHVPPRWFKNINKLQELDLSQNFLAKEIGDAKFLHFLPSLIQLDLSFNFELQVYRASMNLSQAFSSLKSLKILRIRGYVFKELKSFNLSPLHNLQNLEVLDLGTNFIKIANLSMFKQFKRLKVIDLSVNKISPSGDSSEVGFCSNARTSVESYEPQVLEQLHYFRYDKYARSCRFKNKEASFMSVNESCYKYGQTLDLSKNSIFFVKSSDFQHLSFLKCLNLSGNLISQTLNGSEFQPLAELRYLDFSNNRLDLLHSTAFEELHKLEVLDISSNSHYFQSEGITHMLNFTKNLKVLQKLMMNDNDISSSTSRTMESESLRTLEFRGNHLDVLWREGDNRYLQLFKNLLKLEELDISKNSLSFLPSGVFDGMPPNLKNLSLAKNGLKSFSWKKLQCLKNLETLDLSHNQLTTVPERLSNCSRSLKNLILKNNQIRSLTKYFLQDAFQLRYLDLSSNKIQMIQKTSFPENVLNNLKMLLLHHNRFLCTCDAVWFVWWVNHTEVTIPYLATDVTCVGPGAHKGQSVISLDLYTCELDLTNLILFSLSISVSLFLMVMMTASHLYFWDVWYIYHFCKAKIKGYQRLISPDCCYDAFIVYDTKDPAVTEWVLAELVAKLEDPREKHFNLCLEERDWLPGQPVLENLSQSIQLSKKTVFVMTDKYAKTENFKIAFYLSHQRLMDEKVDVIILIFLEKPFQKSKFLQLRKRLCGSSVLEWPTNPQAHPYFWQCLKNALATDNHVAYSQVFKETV
Outline: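 Steady-Glo luminescence after 5 h stimulation with R*48 agonist, following 30 min compound preincubation. Assay run in HEK cells carrying a TLR7/NFKb luciferase reporter, plated at 5000 cells/well and grown 24 h at 37° C (10% CO2) before treatment.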

SMILES | IC50
C[C@H]1C[C@@H](NC(=O)C2CCN(C)C2)CN(c2ccc(C(F)(F)F)c3ncccc23)C1 (stereo partly drawn) [Compound 248, 1-methyl-N-[(3R,5S)-5-methyl-1-[8-(trifluoromethyl)quinolin-5-yl]piperidin-3-yl]pyrrolidine-3-carboxamide] | < 1 µM
C[C@H]1C[C@@H](NC(=O)C2CC(F)(F)C2)CN(c2ccc(C(F)F)c3ncccc23)C1 [Compound 317, N-[(3R,5S)-1-[8-(difluoromethyl)quinolin-5-yl]-5-methylpiperidin-3-yl]-3,3-difluorocyclobutane-1-carboxamide] | > 10 µM
CN1CCN(CC(=O)N[C@H]2C[C@@H](C3CC3)CN(c3ccc(C(F)(F)F)c4ncccc34)C2)CC1 (racemic) [Compound 338, cis-N-[5-cyclopropyl-1-[8-(trifluoromethyl)quinolin-5-yl]piperidin-3-yl]-2-(4-methylpiperazin-1-yl)acetamide] | < 1 µM
COCCN[C@@H]1C[C@H](C)CN(c2ccc(C(F)(F)F)c3ncccc23)C1 [Compound 196, (3R,5S)—N-(2-methoxyethyl)-5-methyl-1-[8-(trifluoromethyl)quinolin-5-yl]piperidin-3-amine] | < 1 µM
CC(C)[C@@H](O)C(=O)N[C@@H]1C[C@H](C)CN(c2ccc(C#N)c3nccnc23)C1 [Compound 21, (R)—N-((3R,5S)-1-(8-cyanoquinoxalin-5-yl)-5-methylpiperidin-3-yl)-2-hydroxy-3-methylbutanamide] | < 1 µM
C[C@H]1C[C@@H](NC(=O)CC(C)(C)CN)CN(c2ccc(C(F)F)c3nccnc23)C1 [Compound 327, 4-amino-N-[(3R,5S)-1-[8-(difluoromethyl)quinoxalin-5-yl]-5-methylpiperidin-3-yl]-3,3-dimethylbutanamide] | < 1 µM
C[C@H]1C[C@@H](NC(C)(C)CO)CN(c2ccc(C(F)(F)F)c3nccnc23)C1 [Compound 252, 2-methyl-2-[[(3R,5S)-5-methyl-1-[8-(trifluoromethyl)quinoxalin-5-yl]piperidin-3-yl]amino]propan-1-ol] | 1 to 10 µM
C[C@H]1C[C@@H](NC(=O)CC2CCN(C)C2)CN(c2ccc(C(F)F)c3ncccc23)C1 (stereo partly drawn) [Compound 307, N-[(3R,5S)-1-[8-(difluoromethyl)quinolin-5-yl]-5-methylpiperidin-3-yl]-2-(1-methylpyrrolidin-3-yl)acetamide] | < 1 µM
CC(C)[C@H](O)C(=O)N[C@@H]1C[C@H](C)CN(c2ccc(C#N)c3nccnc23)C1 [Compound 20, (S)—N-((3R,5S)-1-(8-cyanoquinoxalin-5-yl)-5-methylpiperidin-3-yl)-2-hydroxy-3-methylbutanamide] | < 1 µM
CCN(C)[C@H](C)C(=O)N[C@@H]1C[C@H](C)CN(c2ccc(C#N)c3nccnc23)C1 [Compound 98, (2R)—N-[(3R,5S)-1-(8-cyanoquinoxalin-5-yl)-5-methylpiperidin-3-yl]-2-[ethyl(methyl)amino]propanamide] | < 1 µM
C[C@H]1C[C@@H](NC(=O)CC2CNC2)CN(c2ccc(C(F)(F)F)c3nccnc23)C1 [Compound 300, 2-(azetidin-3-yl)-N-[(3R,5S)-5-methyl-1-[8-(trifluoromethyl)quinoxalin-5-yl]piperidin-3-yl]acetamide] | < 1 µM
CCC(C)C(=O)N[C@@H]1C[C@H](C)CN(c2ccnc3nccnc23)C1 (single isomer, unassigned) [Compound 157] | > 10 µM
N#Cc1ccc(N2CC(NC3CCC(O)CC3)CC(C(F)(F)F)C2)c2nccnc12 (single isomer, unassigned) [Compound 92, cis,trans-8-(-3-((4-hydroxycyclohexyl)amino)-5-(trifluoromethyl)piperidin-1-yl)quinoxaline-5-carbonitrile] | 1 to 10 µM
CC(C(=O)N[C@@H]1C[C@H](C)CN(c2ccc(C(F)F)c3ncccc23)C1)N1CC(O)C1 (stereo partly drawn) [Compound 309, N-[(3R,5S)-1-[8-(difluoromethyl)quinolin-5-yl]-5-methylpiperidin-3-yl]-2-(3-hydroxyazetidin-1-yl)propanamide] | < 1 µM
